From ChEMBL document CHEMBL4616688, “PROTAC Compounds Targeting TRK for Use in Cancer Therapeutics” (ACS Med Chem Lett, 2020)

The compounds below were run on KM12 (assay: Antiproliferative activity against human KM12 cells expressing TPM3-TRKA assessed as reduction in cell viability measured after 3 days by Celltiter-Glo assay). Settings: KM12, 72 h.
Assay type: functional, cell-based

SMILES	IC50 [nM]
O=C(CN1CCN(c2cccc(-c3cnc4ccc(N5CCC[C@@H]5c5cccc(F)c5)nn34)n2)CC1)NCCOCCNc1cccc2c1C(=O)N(C1CCC(=O)NC1=O)C2=O (stereo not given in full)	3.8
O=C(CN1CCN(c2cccc(-c3cnc4ccc(N5CCC[C@@H]5c5cccc(F)c5)nn34)n2)CC1)NCCNc1ccc2c(c1)C(=O)N(C1CCC(=O)NC1=O)C2=O (stereo not given in full)	0.9
O=C1CCC(N2C(=O)c3ccc(NCCCCC(=O)N4CCN(c5cccc(-c6cnc7ccc(N8CCC[C@@H]8c8cccc(F)c8)nn67)n5)CC4)cc3C2=O)C(=O)N1 (stereo not given in full)	0.9
O=C1CCC(N2C(=O)c3ccc(NCCN4CCN(c5cccc(-c6cnc7ccc(N8CCC[C@@H]8c8cccc(F)c8)nn67)n5)CC4)cc3C2=O)C(=O)N1 (stereo not given in full)	3.4
O=C1CCC(N2C(=O)c3ccc(NCCOCCOCCOCCOCCC(=O)N4CCN(c5ccc(C(=O)Nc6n[nH]c7ccc(Cc8cc(F)cc(F)c8)cc67)c(NC6CCOCC6)c5)CC4)cc3C2=O)C(=O)N1 (stereo not given)	1.6
O=C1CCC(N2C(=O)c3ccc(N4CC(C(=O)N5CCN(c6cccc(-c7cnc8ccc(N9CCC[C@@H]9c9cccc(F)c9)nn78)n6)CC5)C4)cc3C2=O)C(=O)N1 (stereo not given in full)	2
OC1CCN(c2cc(-c3cccc(-c4cnc5ccc(N6CCC[C@@H]6c6cccc(F)c6)nn45)n3)ccn2)CC1	46.7
O=C1CCC(N2C(=O)c3cccc(NCCCC(=O)N4CCN(c5ccc(C(=O)Nc6n[nH]c7ccc(Cc8cc(F)cc(F)c8)cc67)c(NC6CCOCC6)c5)CC4)c3C2=O)C(=O)N1 (stereo not given)	1.5
O=C(CN1CCN(c2cccc(-c3cnc4ccc(N5CCC[C@@H]5c5cccc(F)c5)nn34)n2)CC1)NCCOCCNc1ccc2c(c1)C(=O)N(C1CCC(=O)NC1=O)C2=O (stereo not given in full)	0.9
CN1CCN(c2ccc(C(=O)Nc3n[nH]c4ccc(Cc5cc(F)cc(F)c5)cc34)c(NC3CCOCC3)c2)CC1 [ENTRECTINIB]	4.3
